The text below walks through data of ChEMBL document CHEMBL1152786, “Designed DNA probes from the neocarzinostatin family: impact of glycosyl linkage stereochemistry on bulge base binding” (Bioorg Med Chem, 2009).

Structures are written as SMILES.

Target in one assay: not listed separately
In words: Binding affinity to HT3AGTA sequence of bulge DNA by fluorescence quenching.
For the compound `CN[C@H]1[C@H](O[C@H]2c3cc4ccccc4cc3[C@H]3[C@@H]2C=C[C@]32C(=O)C=Cc3ccc(OC)cc32)O[C@H](C)[C@H](O)[C@@H]1O`, the affinity, expressed as Kd, was 390 nM.
The same measure, in the same setting: for `CN[C@H]1[C@H](O[C@@H]2c3cc4ccccc4cc3[C@@H]3[C@H]2C=C[C@@]32C(=O)C=Cc3ccc(OC)cc32)O[C@H](C)[C@H](O)[C@@H]1O` the value was 440 nM.
In turn, `CN[C@H]1[C@H](O[C@@H]2c3cc4c(cc3[C@@H]3[C@H]2OC(=O)[C@@]32C(=O)C=Cc3c(C)cc(OC)cc32)[C@@](O)([C@H]2COC(=O)O2)C=C4)O[C@@H](C)[C@H](O)[C@@H]1O` had a Kd of 12500 nM.
`CN[C@H]1[C@@H](O[C@@H]2c3cc4ccccc4cc3[C@@H]3[C@H]2C=C[C@@]32C(=O)C=Cc3ccc(OC)cc32)O[C@H](C)[C@H](O)[C@@H]1O` returned a Kd of 1400 nM.
Take `CN[C@H]1[C@@H](O[C@H]2c3cc4ccccc4cc3[C@H]3[C@@H]2C=C[C@]32C(=O)C=Cc3ccc(OC)cc32)O[C@H](C)[C@H](O)[C@@H]1O`: the Kd stood at 220 nM.

Target in a further assay: not listed separately
In words: Binding affinity to HT3AGTT sequence of bulge DNA by fluorescence quenching.
Turning to `CN[C@H]1[C@H](O[C@H]2c3cc4ccccc4cc3[C@H]3[C@@H]2C=C[C@]32C(=O)C=Cc3ccc(OC)cc32)O[C@H](C)[C@H](O)[C@@H]1O`, binding was characterised by a dissociation constant (Kd) of 200 nM.
The compound `CN[C@H]1[C@H](O[C@@H]2c3cc4ccccc4cc3[C@@H]3[C@H]2C=C[C@@]32C(=O)C=Cc3ccc(OC)cc32)O[C@H](C)[C@H](O)[C@@H]1O` gave a Kd of 1600 nM.
`CN[C@H]1[C@H](O[C@@H]2c3cc4c(cc3[C@@H]3[C@H]2OC(=O)[C@@]32C(=O)C=Cc3c(C)cc(OC)cc32)[C@@](O)([C@H]2COC(=O)O2)C=C4)O[C@@H](C)[C@H](O)[C@@H]1O` had a Kd of 33 nM.
On the same count and under the same terms, for `CN[C@H]1[C@@H](O[C@@H]2c3cc4ccccc4cc3[C@@H]3[C@H]2C=C[C@@]32C(=O)C=Cc3ccc(OC)cc32)O[C@H](C)[C@H](O)[C@@H]1O` the value was 130 nM; for `CN[C@H]1[C@@H](O[C@H]2c3cc4ccccc4cc3[C@H]3[C@@H]2C=C[C@]32C(=O)C=Cc3ccc(OC)cc32)O[C@H](C)[C@H](O)[C@@H]1O`, 80 nM.

Target in another assay: not listed separately
The assay is described as follows: Binding affinity to HT3AT sequence of bulge DNA by fluorescence quenching.
For the compound `CN[C@H]1[C@H](O[C@H]2c3cc4ccccc4cc3[C@H]3[C@@H]2C=C[C@]32C(=O)C=Cc3ccc(OC)cc32)O[C@H](C)[C@H](O)[C@@H]1O`, binding was put at a Kd of 8200 nM.
In turn, `CN[C@H]1[C@H](O[C@@H]2c3cc4ccccc4cc3[C@@H]3[C@H]2C=C[C@@]32C(=O)C=Cc3ccc(OC)cc32)O[C@H](C)[C@H](O)[C@@H]1O` yielded an equilibrium dissociation constant (Kd) of 9200 nM.
`CN[C@H]1[C@H](O[C@@H]2c3cc4c(cc3[C@@H]3[C@H]2OC(=O)[C@@]32C(=O)C=Cc3c(C)cc(OC)cc32)[C@@](O)([C@H]2COC(=O)O2)C=C4)O[C@@H](C)[C@H](O)[C@@H]1O` gave a Kd of 10000 nM.
In turn, `CN[C@H]1[C@@H](O[C@@H]2c3cc4ccccc4cc3[C@@H]3[C@H]2C=C[C@@]32C(=O)C=Cc3ccc(OC)cc32)O[C@H](C)[C@H](O)[C@@H]1O` had a Kd of 13000 nM.
The same measure, in the same setting: for `CN[C@H]1[C@@H](O[C@H]2c3cc4ccccc4cc3[C@H]3[C@@H]2C=C[C@]32C(=O)C=Cc3ccc(OC)cc32)O[C@H](C)[C@H](O)[C@@H]1O` the value was 10000 nM.

In a further assay the target is Nucleic Acid. The assay is described as follows: Binding affinity to DA12:DAc12 oligomer sequence of bulge DNA by fluorescence quenching. It counts as nucleic-acid assay.
Take `CN[C@H]1[C@H](O[C@@H]2c3cc4c(cc3[C@@H]3[C@H]2OC(=O)[C@@]32C(=O)C=Cc3c(C)cc(OC)cc32)[C@@](O)([C@H]2COC(=O)O2)C=C4)O[C@@H](C)[C@H](O)[C@@H]1O`: binding was characterised by a dissociation constant (Kd) of 307000 nM.

Target in the next assay: not listed separately
The assay is described as follows: Binding affinity to HT3AGT sequence of bulge DNA by fluorescence quenching.
`CN[C@H]1[C@H](O[C@H]2c3cc4ccccc4cc3[C@H]3[C@@H]2C=C[C@]32C(=O)C=Cc3ccc(OC)cc32)O[C@H](C)[C@H](O)[C@@H]1O` yielded a Kd of 14000 nM.
Compound `CN[C@H]1[C@H](O[C@@H]2c3cc4ccccc4cc3[C@@H]3[C@H]2C=C[C@@]32C(=O)C=Cc3ccc(OC)cc32)O[C@H](C)[C@H](O)[C@@H]1O` yielded a Kd of 5500 nM.
Compound `CN[C@H]1[C@H](O[C@@H]2c3cc4c(cc3[C@@H]3[C@H]2OC(=O)[C@@]32C(=O)C=Cc3c(C)cc(OC)cc32)[C@@](O)([C@H]2COC(=O)O2)C=C4)O[C@@H](C)[C@H](O)[C@@H]1O` had a Kd of 20600 nM.
The same measure, in the same setting: for `CN[C@H]1[C@@H](O[C@@H]2c3cc4ccccc4cc3[C@@H]3[C@H]2C=C[C@@]32C(=O)C=Cc3ccc(OC)cc32)O[C@H](C)[C@H](O)[C@@H]1O` the value was 4100 nM.
`CN[C@H]1[C@@H](O[C@H]2c3cc4ccccc4cc3[C@H]3[C@@H]2C=C[C@]32C(=O)C=Cc3ccc(OC)cc32)O[C@H](C)[C@H](O)[C@@H]1O` showed a Kd of 8400 nM.

Target in another assay: not listed separately
The assay is described as follows: Binding affinity to DA12:BA14 sequence of bulge DNA by fluorescence quenching.
For `CN[C@H]1[C@H](O[C@H]2c3cc4ccccc4cc3[C@H]3[C@@H]2C=C[C@]32C(=O)C=Cc3ccc(OC)cc32)O[C@H](C)[C@H](O)[C@@H]1O`, binding was characterised by a dissociation constant (Kd) of 400 nM.
`CN[C@H]1[C@H](O[C@@H]2c3cc4ccccc4cc3[C@@H]3[C@H]2C=C[C@@]32C(=O)C=Cc3ccc(OC)cc32)O[C@H](C)[C@H](O)[C@@H]1O` came in with a Kd of 430 nM.
On the same count and under the same terms, for `CN[C@H]1[C@H](O[C@@H]2c3cc4c(cc3[C@@H]3[C@H]2OC(=O)[C@@]32C(=O)C=Cc3c(C)cc(OC)cc32)[C@@](O)([C@H]2COC(=O)O2)C=C4)O[C@@H](C)[C@H](O)[C@@H]1O` the value was 2180 nM; for `CN[C@H]1[C@@H](O[C@@H]2c3cc4ccccc4cc3[C@@H]3[C@H]2C=C[C@@]32C(=O)C=Cc3ccc(OC)cc32)O[C@H](C)[C@H](O)[C@@H]1O`, 800 nM.
`CN[C@H]1[C@@H](O[C@H]2c3cc4ccccc4cc3[C@H]3[C@@H]2C=C[C@]32C(=O)C=Cc3ccc(OC)cc32)O[C@H](C)[C@H](O)[C@@H]1O` came in with a Kd of 600 nM.

Target in a further assay: not listed separately
The assay is described as follows: Binding affinity to HT3AGCTT sequence of bulge DNA by fluorescence quenching.
`CN[C@H]1[C@H](O[C@H]2c3cc4ccccc4cc3[C@H]3[C@@H]2C=C[C@]32C(=O)C=Cc3ccc(OC)cc32)O[C@H](C)[C@H](O)[C@@H]1O` gave a Kd of 1800 nM.
In the case of `CN[C@H]1[C@H](O[C@@H]2c3cc4ccccc4cc3[C@@H]3[C@H]2C=C[C@@]32C(=O)C=Cc3ccc(OC)cc32)O[C@H](C)[C@H](O)[C@@H]1O`, binding was put at a Kd of 1950 nM.
The compound `CN[C@H]1[C@H](O[C@@H]2c3cc4c(cc3[C@@H]3[C@H]2OC(=O)[C@@]32C(=O)C=Cc3c(C)cc(OC)cc32)[C@@](O)([C@H]2COC(=O)O2)C=C4)O[C@@H](C)[C@H](O)[C@@H]1O` displayed a Kd of 710 nM.
`CN[C@H]1[C@@H](O[C@@H]2c3cc4ccccc4cc3[C@@H]3[C@H]2C=C[C@@]32C(=O)C=Cc3ccc(OC)cc32)O[C@H](C)[C@H](O)[C@@H]1O` yielded a Kd of 1700 nM.
The compound `CN[C@H]1[C@@H](O[C@H]2c3cc4ccccc4cc3[C@H]3[C@@H]2C=C[C@]32C(=O)C=Cc3ccc(OC)cc32)O[C@H](C)[C@H](O)[C@@H]1O` displayed a Kd of 2100 nM.

For a further assay, the target named is HT4AGTT bulged DNA. The assay is described as follows: Binding affinity to HT4AGTT sequence of bulge DNA by fluorescence quenching.
Regarding `CN[C@H]1[C@H](O[C@H]2c3cc4ccccc4cc3[C@H]3[C@@H]2C=C[C@]32C(=O)C=Cc3ccc(OC)cc32)O[C@H](C)[C@H](O)[C@@H]1O`, binding was put at a Kd of 190 nM.
On to `CN[C@H]1[C@H](O[C@@H]2c3cc4ccccc4cc3[C@@H]3[C@H]2C=C[C@@]32C(=O)C=Cc3ccc(OC)cc32)O[C@H](C)[C@H](O)[C@@H]1O`, for which the Kd stood at 1500 nM.
Consider `CN[C@H]1[C@H](O[C@@H]2c3cc4c(cc3[C@@H]3[C@H]2OC(=O)[C@@]32C(=O)C=Cc3c(C)cc(OC)cc32)[C@@](O)([C@H]2COC(=O)O2)C=C4)O[C@@H](C)[C@H](O)[C@@H]1O`, for which the Kd is 26 nM.
On to `CN[C@H]1[C@@H](O[C@@H]2c3cc4ccccc4cc3[C@@H]3[C@H]2C=C[C@@]32C(=O)C=Cc3ccc(OC)cc32)O[C@H](C)[C@H](O)[C@@H]1O`, for which the Kd is 240 nM.
The compound `CN[C@H]1[C@@H](O[C@H]2c3cc4ccccc4cc3[C@H]3[C@@H]2C=C[C@]32C(=O)C=Cc3ccc(OC)cc32)O[C@H](C)[C@H](O)[C@@H]1O` showed a Kd of 110 nM.

The term Kd denotes the constant that tells how readily two partners part at equilibrium.
